# Assay results from ChEMBL document CHEMBL4483862, “Open-source discovery of chemical leads for next-generation chemoprotective antimalarials” (2018).
# Tested on: Plasmodium berghei
# Assay: Luciferase/luciferin-expressing antifolate-resistant parasites were used to infect a culture of HepG2 cells that were pre-incubated with compounds. Infected hepatocytes emit light due to the luciferase reaction. Assay results are presented as the percent inhibition of light emission compared to control. […]
# Format: functional
# Details: sporozoite; for IC90: read-out: LUCIFERASE INFECTION ASSAY - IC90
# [1] = read-out: LUCIFERASE INFECTION ASSAY - IC50
Compound,IC90,IC50 [1],further results
CCc1cccc(Nc2nc3ccccc3s2)c1,> 10 µM,–,"IC50 (FFLUC_HILL_SLOPE 1.67, FFLUC_R_SQUARED 0.624, read-out: LUCIFERASE INFECTION ASSAY - IC50): > 10 µM"
COc1ccc(S(=O)(=O)Nc2ccc3c(c2)CS(=O)(=O)C3)cc1,> 9.34 µM,–,"IC50 (FFLUC_HILL_SLOPE 6.24, FFLUC_R_SQUARED 0.631, read-out: LUCIFERASE INFECTION ASSAY - IC50): > 9.34 µM"
CC(C)c1ccc(-c2cnc3sc(NCc4cccnc4)nn23)cc1,> 9.44 µM,> 9.44 µM,–
Cc1nc(C2CC2)nc2sc(-c3nc(-c4cccs4)no3)c(N)c12,> 10 µM,–,"IC50 (PBLUC_HILL_SLOPE 2.09, PBLUC_R_SQUARED 0.41, read-out: LUCIFERASE INFECTION ASSAY - IC50): 4.67 µM"
Cc1ccc(S(=O)(=O)c2nc(/C=C3\N(C)c4ccccc4C3(C)C)sc2Cl)cc1,> 10 µM,–,"IC50 (FFLUC_HILL_SLOPE 1.82, FFLUC_R_SQUARED 0.745, read-out: LUCIFERASE INFECTION ASSAY - IC50): > 10 µM"
CC1CC(OCC(O)CN2CCN(c3ccc(F)cc3)CC2)CC(C)(C)C1 (stereo not drawn),> 7.31 µM,–,"IC50 (FFLUC_HILL_SLOPE 15.4, FFLUC_R_SQUARED 0.216, PBLUC_HILL_SLOPE 1.14, PBLUC_R_SQUARED 0.115, read-out: LUCIFERASE INFECTION ASSAY - IC50): > 7.31 µM"
Clc1ccc(/C=C/c2cnc3ccccc3n2)cc1,> 12.4 µM,–,"IC50 (PBLUC_HILL_SLOPE 0.854, PBLUC_R_SQUARED 0.483, read-out: LUCIFERASE INFECTION ASSAY - IC50): 2.04 µM"
CN1c2ccsc2C(=O)/C(=C\Nc2ccccc2Cl)S1(=O)=O,> 9.3 µM,> 9.3 µM,–
c1ccc(-c2cn3nc(NCC(c4cccs4)N4CCOCC4)sc3n2)cc1 (stereo not drawn),6.67 µM,–,"IC50 (PBLUC_HILL_SLOPE 82.8, PBLUC_R_SQUARED 0.111, read-out: LUCIFERASE INFECTION ASSAY - IC50): 6.5 µM"
CCC(C)N1C(=O)Cc2c1nc(N)c1c(N)nc(N3CC(C)OC(C)C3)c(C#N)c21 (stereo not drawn),> 10 µM,> 10 µM,–
COC(=O)c1ccc(C)c(NC(=O)CCc2ccc3c(c2)OCCO3)c1,> 10 µM,> 10 µM,–
Oc1ccc(CNC(c2ccc3c(c2)CCC3)c2cccs2)cc1 (stereo not drawn),> 10 µM,> 10 µM,–
CCCCn1nc(C(=O)NC(c2ccccc2)c2ccc(OC)cc2)c2ccccc2c1=O (stereo not drawn),> 10 µM,> 10 µM,–
CC(C)(C)c1ccc(-c2nnc(SCc3ccccc3)n2-c2cccc(C(F)(F)F)c2)cc1,> 7.06 µM,–,"IC50 (PBLUC_HILL_SLOPE 9.35, PBLUC_R_SQUARED 0.201, read-out: LUCIFERASE INFECTION ASSAY - IC50): 6.61 µM"
c1ccc(Oc2cccc(-c3ccc4nnc(-c5ccc6nccnc6c5)n4c3)c2)cc1,> 10 µM,–,"IC50 (PBLUC_HILL_SLOPE 2.21, PBLUC_R_SQUARED 0.734, read-out: LUCIFERASE INFECTION ASSAY - IC50): 4.56 µM"
CC(C)CC(N)c1csc(NC(=O)Nc2ccc(OC(F)(F)F)cc2)n1 (stereo not drawn),5.1 µM,–,"IC50 (PBLUC_HILL_SLOPE 53.9, PBLUC_R_SQUARED 0.0664, read-out: LUCIFERASE INFECTION ASSAY - IC50): 4.89 µM"
C[C@H]1O[C@@H](O[C@H]2[C@@H](O)C[C@H](O[C@H]3[C@@H](O)C[C@H](O[C@H]4CC[C@@]5(C)[C@H](CC[C@@H]6[C@@H]5C[C@@H](O)[C@]5(C)[C@@H](C7=CC(=O)OC7)CC[C@]65O)C4)O[C@@H]3C)O[C@@H]2C)C[C@H](O)[C@@H]1O [DIGOXIN],0.117 µM,0.0489 µM,–
c1cc[n+](Cc2ccc(-c3nc4ccccc4s3)cc2)cc1,7.9 µM,–,"IC50 (PBLUC_HILL_SLOPE 1.53, PBLUC_R_SQUARED 0.36, read-out: LUCIFERASE INFECTION ASSAY - IC50): 1.88 µM"
CC(C)C(Nc1ccc(C(F)(F)F)cc1Cl)C(=O)Nc1nc(-c2ccccc2Cl)cs1 (stereo not drawn),6.73 µM,–,"IC50 (HEPG2TOX_HILL_SLOPE 4.1, HEPG2TOX_R_SQUARED 0.707, PBLUC_HILL_SLOPE 4.35, PBLUC_R_SQUARED 0.154, read-out: LUCIFERASE INFECTION ASSAY - IC50): 4.06 µM"
CCOC(=O)c1sc(N(NC(=O)c2ccccc2Cl)C(=O)c2ccccc2Cl)c2c1CC(C)(C)CC2=O,> 5.9 µM,–,"IC50 (HEPG2TOX_HILL_SLOPE 5.11, HEPG2TOX_R_SQUARED 0.645, PBLUC_HILL_SLOPE 3.24, PBLUC_R_SQUARED 0.155, read-out: LUCIFERASE INFECTION ASSAY - IC50): 3.1 µM"
Cc1nc(-c2ccc3c(c2)CCN3C(=O)C2(C)Cc3ccccc3C(=O)O2)cs1 (stereo not drawn),> 10 µM,–,"IC50 (PBLUC_HILL_SLOPE 2.39, PBLUC_R_SQUARED 0.602, read-out: LUCIFERASE INFECTION ASSAY - IC50): 4.47 µM"

Compound,IC90,IC50 [1],further results
CCOc1ccc(Nc2nc(-c3c(C)nc4cc(C)ccn34)cs2)cc1,6.99 µM,–,–
O=C(Nc1ccc(Oc2ccnc3cc(Cl)ccc23)cc1)c1ccco1,2.99 µM,–,"IC50 (PBLUC_HILL_SLOPE 3.16, PBLUC_R_SQUARED 0.555, read-out: LUCIFERASE INFECTION ASSAY - IC50): 1.49 µM"
Clc1ccc(Sc2ncnc3ccsc23)cc1,9.97 µM,–,"IC50 (PBLUC_HILL_SLOPE 15.3, PBLUC_R_SQUARED 0.133, read-out: LUCIFERASE INFECTION ASSAY - IC50): 8.63 µM"
CC(=O)O[C@H]1C[C@@H](O[C@@H]2C(C)O[C@H](O[C@@H]3C(C)O[C@@H](O[C@H]4CC[C@@]5(C)C(CCC6C5C[C@@H](O)[C@]5(C)[C@@H](C7=CC(=O)OC7)CC[C@]65O)C4)C[C@@H]3O)C[C@@H]2O)OC(C)[C@H]1O[C@@H]1O[C@H](CO)[C@@H](O)[C@H](O)[C@H]1O (stereo partly drawn),> 3.35 µM,–,"IC50 (HEPG2TOX_HILL_SLOPE 2.2, HEPG2TOX_R_SQUARED 0.634, PBLUC_HILL_SLOPE 2.28, PBLUC_R_SQUARED 0.618, read-out: LUCIFERASE INFECTION ASSAY - IC50): 1.57 µM"
CC(C)c1cccc(-c2nc3ccnc(NCc4ccccn4)c3[nH]2)c1,> 10 µM,–,"IC50 (HEPG2TOX_HILL_SLOPE 1.38, HEPG2TOX_R_SQUARED 0.883, PBLUC_HILL_SLOPE 3.5, PBLUC_R_SQUARED 0.343, read-out: LUCIFERASE INFECTION ASSAY - IC50): 6.01 µM"
O=C(OCC(=O)N1CCN(C(=O)c2ccco2)CC1)c1cccc(NS(=O)(=O)c2ccc(F)c(F)c2)c1,> 10 µM,> 10 µM,–
COc1ccc(-c2cnc3sc(NCCc4ccncc4)nn23)cc1OC,8.35 µM,–,"IC50 (HEPG2TOX_HILL_SLOPE 4.06, HEPG2TOX_R_SQUARED 0.383, PBLUC_HILL_SLOPE 12.9, PBLUC_R_SQUARED 0.15, read-out: LUCIFERASE INFECTION ASSAY - IC50): 7.04 µM"
CN(C)c1nn(C(=S)Nc2cccc(C(F)(F)F)c2)cc1-c1ccccc1,> 8.45 µM,> 8.45 µM,–
CCN1C/C(=C/c2ccc(NC(C)=O)cc2)C(=O)/C(=C/c2ccc(NC(C)=O)cc2)C1,> 10 µM,> 10 µM,–
CNc1snc(C)c1C(=O)OCc1ccc(-n2cccn2)cc1,1.04 µM,–,"IC50 (HEPG2TOX_HILL_SLOPE 12.1, HEPG2TOX_R_SQUARED 0.465, PBLUC_HILL_SLOPE 2.29, PBLUC_R_SQUARED 0.748, read-out: LUCIFERASE INFECTION ASSAY - IC50): 0.4 µM"
Cc1ccc(C)c(-c2csc(NC(=O)CCNC(=O)c3ccsc3)n2)c1,5.37 µM,–,"IC50 (PBLUC_HILL_SLOPE 433, PBLUC_R_SQUARED 0.479, read-out: LUCIFERASE INFECTION ASSAY - IC50): 5.35 µM"
Cc1ccc(S(=O)(=O)Nc2ccc(Oc3ccc(Cl)cc3)cc2)cc1,> 8.83 µM,–,"IC50 (FFLUC_HILL_SLOPE 2.59, FFLUC_R_SQUARED 0.0226, PBLUC_HILL_SLOPE 17.9, PBLUC_R_SQUARED 0.275, read-out: LUCIFERASE INFECTION ASSAY - IC50): 8.28 µM"
Cc1ccc(Sc2ccc(NC(=O)C3CC(=O)N(C4CC4)C3)cc2)c(C)c1 (stereo not drawn),> 10 µM,> 10 µM,–
O=C(NCc1ccccc1)/C(=C/c1ccc(OCc2ccccc2)cc1)c1nc2ccccc2[nH]1,1.26 µM,–,"IC50 (FFLUC_HILL_SLOPE 9.07, FFLUC_R_SQUARED 0.413, PBLUC_HILL_SLOPE 2.18, PBLUC_R_SQUARED 0.79, read-out: LUCIFERASE INFECTION ASSAY - IC50): 0.462 µM"
Cc1ccc(C)c(S(=O)(=O)N2CCN(C(=O)c3[nH]nc4ccccc34)CC2)c1,1.72 µM,–,"IC50 (PBLUC_HILL_SLOPE 2.18, PBLUC_R_SQUARED 0.737, read-out: LUCIFERASE INFECTION ASSAY - IC50): 0.627 µM"
O=C(Nc1ccccc1)Nc1ccc(Cl)cc1[N+](=O)[O-],5.21 µM,–,"IC50 (HEPG2TOX_HILL_SLOPE 12.3, HEPG2TOX_R_SQUARED 0.323, PBLUC_HILL_SLOPE 4.88, PBLUC_R_SQUARED 0.281, read-out: LUCIFERASE INFECTION ASSAY - IC50): 3.32 µM"
Cn1c(CSc2nc3ccccc3s2)nn(CN2CCCc3ncccc32)c1=S,> 10 µM,> 10 µM,–
CN(C)CCNC(=O)c1cccc(-c2cnc3ccc(-c4ccc(F)cc4)nn23)c1,> 10 µM,–,"IC50 (HEPG2TOX_HILL_SLOPE 10.3, HEPG2TOX_R_SQUARED 0.505, PBLUC_HILL_SLOPE 2.09, PBLUC_R_SQUARED 0.253, read-out: LUCIFERASE INFECTION ASSAY - IC50): 4.88 µM"
Cc1onc(-c2ccccc2)c1C(=O)ON=C1C2CC3CC(C2)CC1C3,> 9.42 µM,–,"IC50 (PBLUC_HILL_SLOPE 14.9, PBLUC_R_SQUARED 0.433, read-out: LUCIFERASE INFECTION ASSAY - IC50): 8.78 µM"
CC(=O)N1CCc2cc(NC(=O)Cn3c(COc4ccc5ccccc5c4)nc4ccccc43)ccc21,> 10 µM,> 10 µM,–
COCCOc1ccc(C(F)(F)F)cc1NC(=O)Nc1ccc(Cl)c(Cl)c1,6.68 µM,–,"IC50 (PBLUC_HILL_SLOPE 3.42, PBLUC_R_SQUARED 0.295, read-out: LUCIFERASE INFECTION ASSAY - IC50): 3.52 µM"
